Experimental data from ChEMBL document CHEMBL3758123, “Synthesis, biological evaluation and molecular modeling study of some new thiazolodiazepine analogs as CNS active agents” (Bioorg Med Chem Lett, 2016).
Calls of active or inactive are those of the source. The calls are words filed in the database; no cut-off is given here.

Experiments:
[1] = tested on: Mus musculus; experiment: Anticonvulsant activity in Swiss albino mouse assessed as pentylenetetrazole induced onset of convulsion time at 200 mg/kg, ip administered for 20 mins followed by pentylenetetrazole challenge; format: functional
[2] = tested on: Mus musculus; experiment: Anticonvulsant activity in Swiss albino mouse assessed as pentylenetetrazole induced convulsions frequency time at 200 mg/kg, ip administered for 20 mins followed by pentylenetetrazole challenge; format: functional
[3] = tested on: Mus musculus; experiment: Toxicity in pentylenetetrazole induced Swiss albino mouse convulsion model assessed as time of death at 200 mg/kg, ip administered for 20 mins followed by pentylenetetrazole challenge; format: organism-based; conditions: in vivo
[4] = tested on: Mus musculus; experiment: Anticonvulsant activity in Swiss albino mouse assessed as picrotoxin-induced onset of convulsion time at 200 mg/kg, ip administered for 30 mins followed by picrotoxin challenge; format: functional
[5] = tested on: Mus musculus; experiment: Anticonvulsant activity in Swiss albino mouse assessed as picrotoxin-induced convulsions frequency time at 200 mg/kg, ip administered for 30 mins followed by picrotoxin challenge; format: functional
[6] = tested on: Mus musculus; experiment: Toxicity in picrotoxin-induced Swiss albino mouse convulsion model assessed as time of death at 200 mg/kg, ip administered for 30 mins followed by picrotoxin challenge; format: organism-based; conditions: in vivo, 0.5 h
[7] = tested on: Mus musculus; experiment: Hypnotic activity in mouse assessed as quietness at 200 mg/kg, ip after 20 mins; format: functional, organism-based
[8] = tested on: Mus musculus; experiment: Hypnotic activity in mouse assessed as decrease in locomotors activity at 200 mg/kg, ip after 20 mins; format: functional, organism-based
[9] = tested on: Mus musculus; experiment: Hypnotic activity in mouse assessed as calmness at 200 mg/kg, ip after 20 mins; format: functional, organism-based
[10] = tested on: Mus musculus; experiment: Hypnotic activity in mouse assessed as muscle relaxation at 200 mg/kg, ip after 15 mins; format: functional, organism-based
[11] = tested on: Mus musculus; experiment: Anticonvulsant activity in Swiss albino mouse assessed as pentylenetetrazole induced onset of convulsion time at 100 mg/kg, ip administered for 20 mins followed by pentylenetetrazole challenge; format: functional
[12] = tested on: Mus musculus; experiment: Anticonvulsant activity in Swiss albino mouse assessed as pentylenetetrazole induced convulsions frequency time at 100 mg/kg, ip administered for 20 mins followed by pentylenetetrazole challenge; format: functional
[13] = tested on: Mus musculus; experiment: Toxicity in pentylenetetrazole induced Swiss albino mouse convulsion model assessed as time of death at 100 mg/kg, ip administered for 20 mins followed by pentylenetetrazole challenge; format: organism-based; conditions: in vivo
[14] = tested on: Mus musculus; experiment: Anticonvulsant activity in Swiss albino mouse assessed as protection against pentylenetetrazole-induced seizure at 200 mg/kg, ip administered for 20 mins followed by pentylenetetrazole challenge; format: functional
[15] = tested on: Mus musculus; experiment: Anticonvulsant activity in Swiss albino mouse assessed as protection against maximal electroshock-induced seizures at 200 mg/kg, ip administered for 30 mins followed by electric shock treatment; format: functional
[16] = tested on: Mus musculus; experiment: Protective index, ratio of TD50 for Swiss albino mouse assessed as motor performance to ED50 for protection against pentylenetetrazole-induced seizure in ip dosed Swiss albino mouse; format: functional
[17] = tested on: Mus musculus; experiment: Anticonvulsant activity in ip dosed Swiss albino mouse assessed as protection against maximal electroshock-induced seizures administered for 30 mins followed by electric shock treatment; format: functional; conditions: 0.5 h
[18] = tested on: Mus musculus; experiment: Protective index, ratio of TD50 for Swiss albino mouse assessed as motor performance to ED50 for protection against maximal electroshock-induced seizure in ip dosed Swiss albino mouse; format: functional
[19] = tested on: Mus musculus; experiment: Protective index, ratio of TD50 for Swiss albino mouse assessed as motor performance to ED50 for protection against picrotoxin-induced seizure in ip dosed Swiss albino mouse; format: functional
[20] = Therapeutic index, ratio of LD50 for ip dosed Swiss albino mouse to ED50 for protection against pentylenetetrazole induced seizure in ip dosed Swiss albino mouse; format: organism-based; conditions: in vivo, read-out: Ratio LD50/ED50
[21] = tested on: Mus musculus; experiment: Potency index, ratio of compound activity to sodium valproate activity against pentylenetetrazole-induced seizure in ip dosed Swiss albino mouse; format: functional
[22] = tested on: Mus musculus; experiment: Anticonvulsant activity in Swiss albino mouse assessed as protection against pentylenetetrazole-induced seizure at 100 mg/kg, ip after 20 mins; format: functional
[23] = tested on: Mus musculus; experiment: Anticonvulsant activity in Swiss albino mouse assessed as protection against maximal electroshock-induced seizures at 100 mg/kg, ip administered for 30 mins followed by electric shock treatment; format: functional
[24] = tested on: Mus musculus; experiment: Hypnotic activity in mouse assessed as loss of righting reflex and sleep at 100 mg/kg, ip after 2 mins; format: functional, organism-based
[25] = tested on: Mus musculus; experiment: Hypnotic activity in mouse assessed as decrease in locomotors activity at 100 mg/kg, ip after 20 mins; format: functional, organism-based
[26] = tested on: Mus musculus; experiment: Hypnotic activity in mouse assessed as calmness at 100 mg/kg, ip after 20 mins; format: functional, organism-based
[27] = tested on: Mus musculus; experiment: Hypnotic activity in mouse assessed as loss of righting reflex and sleep at 200 mg/kg, ip after 20 mins; format: functional, organism-based

| SMILES | Time [1] | Time [2] | Time [3] | Time [4] | Time [5] | Time [6] | Activity [7] | also measured |
| --- | --- | --- | --- | --- | --- | --- | --- | --- |
| CC1=CN2CC/C(=C\c3ccc(Br)cc3)C(=O)N=C2S1 | 1.2 min | 2.1 min | 2.6 min | 8 min | 6 min | 14.3 min | – | – |
| COc1ccc(/C=C2\CCN3C(C)=CSC3=NC2=O)cc1 | 2.3 min | 1.9 min | 5.1 min | 11.3 min | 9.5 min | 20.7 min | Active | – |
| CC1=C(Sc2ccccc2C(=O)O)SC2=NC(=O)CCCN21 | 1.5 min | 2.8 min | 3.8 min | 7.8 min | 7.3 min | 12.3 min | – | Activity [8]: Active |
| CC1=CN2CCCC(=O)N=C2S1 | 4.1 min | 3.1 min | 5.2 min | 7.1 min | 8.7 min | 10.1 min | Active | – |
| CCOC(=O)C1=C(C)N2CCCC(=O)N=C2S1 | – | – | – | – | – | – | – | Activity [9]: Active; Activity [10]: Active; Time [11]: 4.6 min; Time [12]: 2 min; Time [13]: 6.3 min; Activity [14]: 100%; Activity [15]: 100%; Ratio TD50/ED50 [16]: 1.57; ED50 [17]: 90 mg/kg; Ratio TD50/ED50 [18]: 2.22; Ratio TD50/ED50 [19]: 1.35; selectivity ratio [20]: 5.28; Ratio [21]: 2; Activity [8]: Active |
| CC1=CSC2=NC(=O)/C(=C/c3ccc(Br)cc3)CCN12 | 2.1 min | 2 min | 3.6 min | 12.5 min | 2.5 min | 19.5 min | Active | – |
| CCOC(=O)C1=C(C)N2CC/C(=C\c3ccc(OC)cc3)C(=O)N=C2S1 | 2.2 min | 2.3 min | 3.7 min | 9.1 min | 11.1 min | 18.3 min | – | – |
| CC1=C(Br)SC2=NC(=O)CCCN21 | – | – | – | 13.5 min | 5 min | 23.1 min | – | Activity [22]: 100%; Activity [23]: 100%; Ratio TD50/ED50 [16]: 1.51; ED50 [17]: 78 mg/kg; Ratio TD50/ED50 [18]: 2.17; Ratio TD50/ED50 [19]: 1.31; selectivity ratio [20]: 5.71; Ratio [21]: 4; Activity [24]: Active; Activity [25]: Active; Activity [26]: Active; Activity [27]: Active |
| CC1=CSC2=NC(=O)CCCN12 | 1.5 min | 3.1 min | 4.1 min | 13.9 min | 6.7 min | 18.5 min | Active | – |
| COc1ccc(/C=C2\CCN3C=C(C)SC3=NC2=O)cc1 | 4.1 min | 5.3 min | 27.3 min | 10.1 min | 3 min | 8.1 min | – | Activity [9]: Active |
| CCOC(=O)C1=C(C)N2CC/C(=C\c3ccc(Br)cc3)C(=O)N=C2S1 | 7.3 min | 4.1 min | 8.4 min | 8.1 min | 6.1 min | 11.6 min | – | Activity [8]: Active |
